The structures appear in SMILES notation.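 Where inhibition never reached the appropriate level, the endpoint shown equals the highest concentration tested. Otherwise, values were interpolated linearly from a five-concentration, 48-hour dose response in 96-well plates. GI50: concentration for 50% inhibition of growth. TGI: concentration producing complete growth inhibition.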 A value given as a limit tells only on which side of the number the result lay.

This experiment deals with MDA-MB-468 breast. Briefly: inhibition of tumour cell growth, NCI panel, 48 h.
As to `Cc1cc(/C=C2\SC(=Nc3ccccc3)N(C3CCCC3)C2=O)c(C)n1-c1ccc(Cl)cc1`, the GI50 was 48000 nM and the TGI was more than 100000 nM.

In the case of `Clc1nc(Oc2ccccc2)nc(-c2cn(-c3ccccc3)c3ccccc23)n1`, the GI50 was 2860 nM and the TGI was found to be 9940 nM.

Take `COc1cc(/C=C/c2cc(C(F)(F)F)[nH]c(=O)n2)ccc1OCc1ccccc1F`: the GI50 was 2970 nM and the TGI stood at 14400 nM.

With `COC(=O)CCC/C=C\C[C@H]1C=CC(=O)/C1=C/C[C@@H](O)CCc1cccc(C(F)(F)F)c1`, the GI50 is 2010 nM and the TGI turned out to be 5230 nM.

Regarding `Nc1c(C(=O)c2ccccc2)sc2nc(-c3cccs3)ccc12`, the GI50 was 200 nM and the TGI is 910 nM.

As for `CCCCNc1nc(NC(C)(C)C)nc(NC(C)(C)C)n1`, the GI50 was 1490 nM and the TGI turned out to be 34800 nM.

Regarding `CC1(C)C=CC[C@]2(C)[C@H]3CC[C@@H]4[C@H]5[C@H](C(=O)/C=C/c6cccnc6)CC[C@]5(CO)CC[C@@]4(C)[C@]3(C)CC[C@@H]12`, the GI50 was 1340 nM and the TGI came out at 2880 nM.

`CC(C)c1ccc(Cc2cnc(NC(=O)c3cc(Br)cs3)s2)cc1`: the GI50 is 1300 nM and the TGI was 8670 nM.

In the case of `COc1cc(OC)c(/C=C/c2ccc3ccccc3[n+]2C)c(OC)c1`, the GI50 is 161 nM and the TGI came out at 763 nM.

For `COc1ccc2c(c1)sc1nc(-c3ccccc3)c(-c3ccsc3)n12`, the GI50 is 1980 nM and the TGI came out at 5430 nM.

As for `O=C(CN1CCOCC1)NNc1ncnc2ccccc12`, the GI50 was 3650 nM and the TGI came to 15600 nM.

For the compound `CC[N+](CCCCCCCCCC[N+](CC)(c1ccccn1)c1ccccn1)(c1ccccn1)c1ccccn1`, the GI50 was 206 nM and the TGI amounted to 1430 nM.

Turning to `O=[N+]([O-])c1ccc2[nH]cc(-c3c4ccsc4cc4[nH]c5ccc([N+](=O)[O-])cc5c34)c2c1`, the GI50 is 805 nM and the TGI was 2470 nM.

As to `COc1c/c(=C2/C=c3ccccc3=N2)[nH]/c1=C/c1[nH]c(C)cc1C`, the GI50 is 311 nM and the TGI worked out at 1940 nM.

With `C=CCn1c(C)nc2cc(Nc3nc(Nc4ccc5nc(C)n(CC=C)c5c4)c4ccccc4n3)ccc21`, the GI50 is 203 nM and the TGI amounted to 521 nM.

As to `Oc1ccc(Br)cc1Sc1cc(Br)ccc1O`, the GI50 was 4090 nM and the TGI was determined as 20800 nM.

On to `COc1ccc(/C=C/c2cc(OC)c(OC)c(OC)c2)cc1NC(=O)/C=C/c1ccc(F)cc1`, for which the GI50 was 1780 nM and the TGI was more than 37500 nM.

With `Cc1ccc(C(=O)c2oc3ccc4c(C)cc(=O)oc4c3c2C)cc1`, the GI50 was 12100 nM and the TGI is more than 100000 nM.

As to `COc1cc(-c2cnn(C)c2)ccc1Nc1ncc2ccnc(N[C@@H](C)C(C)(C)C)c2n1`, the GI50 is more than 74700 nM and the TGI is more than 100000 nM.

Consider `CC[N+](CC)=c1ccc2nc3c(cc(N)c4ccccc43)oc-2c1`, for which the GI50 was 21.9 nM and the TGI was 132 nM.

As to `CCOC(=O)[C@@H](C)C[C@H](Cc1ccccc1)NC(=O)c1csc([C@@H](C[C@H](C(C)C)N(C)C(=O)[C@@H](NC(=O)[C@H]2C[C@H](O[Si](C)(C)C(C)(C)C)CCN2C)C(C)C)OC(C)=O)n1`, the GI50 was 75.4 nM and the TGI is 5450 nM.

As to `C#C[C@]1(O)CC[C@H]2[C@@H]3CC=C4c5sc(Nc6cc(Cl)ccn6)nc5CC[C@]4(C)[C@H]3CC[C@@]21C`, the GI50 is 2190 nM and the TGI amounted to 6610 nM.

For the compound `O=C(Nc1ccc(Cl)cc1)Nc1ccc(Cl)c(Cl)c1`, the GI50 is 2610 nM and the TGI was 11300 nM.

As to `CCOc1ccc(/C=C/C(=O)c2ccccc2)cc1`, the GI50 was 17300 nM and the TGI was 34100 nM.

Turning to `CCCCCCC/C=C/[C@H]1O[C@]23C(=O)C[C@@]4(C[C@@H](OC5OC(CO)C(O)C(O)C5O)C[C@@H]4[C@H]2C=C1C)OC3=O` (stereo partly drawn), the GI50 is 4580 nM and the TGI came out at 13500 nM.

For `COc1cc(-c2nc3ccc(C)cc3[nH]2)ccc1OCC(=O)N=Nc1c(O)[nH]c2ccccc12`, the GI50 is 1750 nM and the TGI was determined as 3340 nM.

As for `CN1CCN(Cc2ccc(NC(=O)c3cncc(C#Cc4cnc(N)c5ccc(F)cc45)c3)cc2C(F)(F)F)CC1`, the GI50 was 1770 nM and the TGI worked out at 6670 nM.

For `C=CC(=O)N1CCCC(n2nc(-c3ccc(Oc4ccccc4)cc3)c3c(N)ncnc32)C1` (stereo not drawn), the GI50 was 31.9 nM and the TGI came out at 600 nM.

In the case of `CC1=CSC2=NC(c3ccc(Cl)c(Cl)c3)=CC(c3ccc(Cl)cc3)N12` (stereo not drawn), the GI50 was more than 100000 nM and the TGI was more than 100000 nM.

As to `N#CCc1nc(C#N)c(N)o1`, the GI50 is more than 100000 nM and the TGI was more than 100000 nM.

With `O=C(Nc1cccc(C(F)(F)F)c1)c1cc(-c2ccc(F)cc2F)ccc1O`, the GI50 is 2220 nM and the TGI came to 6840 nM.

Turning to `CC1=CC[C@@H]2CC[C@]3(C)[C@H](CC[C@@H]4[C@@]5(C)CCCNC(C)(C)[C@@H]5CC[C@]43C)[C@H]2[C@@H]1C`, the GI50 was 1680 nM and the TGI worked out at 3300 nM.

On to `COc1cccc(-c2nc3sccn3c2-c2ccnc(NCCNC(=O)Nc3cccc(C(F)(F)F)c3)n2)c1`, for which the GI50 was 2630 nM and the TGI is 10400 nM.

With `COc1cc2nc(-c3ccc(C(F)(F)F)cc3)cc(OCCCN3CCOCC3)c2cc1OC`, the GI50 was 1240 nM and the TGI amounted to 5710 nM.

The values are drawn from PubChem BioAssay (NCI).
